# Measured values published in article PMC12250071, “Cloning, Expression and Functional Characterization of V. vinifera CAT2 Arginine Transporter” (International Journal of Molecular Sciences, 2025).
# Biological target: T1, VvCAT2
# T1 construct: gene CAT2; full-length, C-terminal 6His, reconstituted in proteoliposomes
# Assay: competitive inhibition of [3H]arginine uptake in proteoliposomes with purified transporter (Lineweaver-Burk); also transported as [3H]ornithine
# Type: biochemical, Vitis vinifera
compound,measurement,value
NCCC[C@H](N)C(=O)O [ornithine],Ki,2200 ± 500 µM
